Laboratory results taken from patent publication US11716944B1, “Method for improving one-time seedling rate of microspore embryoids of brassica campestris SSP. chinensis makino” (Anhui Agricultural University, priority 2021, dated 2023).

Key:
[1] = test system: purified microspores of Brassica campestris ssp. Chinensis Makino; assay: Effects of different concentrations of phytic acid PA added in microspore culture on the embryogenesis rate; type: cell-based
Description: In this example, a method for improving a one-time seedling rate of microspore embryoids of Brassica campestris ssp. Chinensis Makino included the steps of: • (1) pretreatment of flower bud • a concentration of 100 mg/L of 6-BA was sprayed onto a flower bud of a plant of Brassica campestris ssp. Chinensis Makino at a full-bloom stage after squaring; on the second day after the spraying of 6-BA, an inflorescence, which was specifically a main inflorescence or a healthy inflorescence of a primary branch of a plant without insect pests and cracked buds, was selected, placed in a self-sealing bag and sprayed with clean water, and then stored in a refrigerator at 4° C. for 1 day for later use; • (2) isolation of microspores • a flower bud with a petal length/anther length between 0.5-1 was selected, firstly sterilized with 70% alcohol for 30 s, then sterilized with 0.1% HgCl2 under shaking for 6 min, and then rinsed with sterilized water for 2 times, with each time for 5 min; then, the flower bud was crushed in a B5 medium with a glass rod to release microspores, and the microspores were filtered by a 300-mesh steel-wire mesh screen and a cell mesh screen successively; subsequently, a filtrate was collected into a centrifugal tube and centrifuged under the condition of 1,000 r/min for 3 min; and after the centrifuging, a pellet was resuspended with a B5 medium, and the resuspended solution was centrifuged again under the condition of 1,000 r/min for 3 min to obtain a pellet as the purified microspores desired for the objective; • (3) culture of microspores • the purified microspores were diluted with a NLN medium, and a cell density was adjusted to about 1.5 × 10^5 /mL^-1 (at this time, the medium was pale yellow); subsequently, the diluted purified microspores were subpackaged into culture dishes, and added with phytic acid PA at a concentration of 0.15%; and finally, the microspores were subjected to heat shock treatment at 33° C. for 24 h, then transferred to culture in the dark at 25° C., and placed onto a shaker for shaking culture after embryoids visible to naked eyes appeared; and • (4) germination and seedling of embryoids • the cultured embryoids in a cotyledon stage with a length of 2.8 mm were transferred onto a MS medium for differentiation culture, wherein culture conditions were 4° C., 14 h of illumination by blue-red compound light/day, and 14 days of culture; and then, the culture was continued under a condition of 25° C. and 14 h of illumination by blue-red compound light/day until seedling; wherein the ratio of blue light to red light in the blue-red compound light was 1:1. This example was used for verifying the effects of different concentrations of phytic acid PA on the embryogenesis rate of Brassica campestris ssp. Chinensis Makino: Method: in the process of microspore culture, the purified microspores subjected to density dilution were subpackaged into culture dishes, and added with phytic acid PA at concentrations of 0, 0.01%, 0.1%, 0.15%, 0.5% and 1% respectively, so as to study the effects of different concentrations of phytic acid PA on the embryogenesis rate of Brassica campestris ssp. Chinensis Makino (other steps were the same, and conducted with reference to Example 3).

[2] = test system: Brassica campestris ssp. Chinensis Makino; assay: Effects of different concentrations of 6-BA sprayed onto flower buds on the embryogenesis rate; type: in vivo; conditions: for embryogenesis rate increased by: compared with no 6-BA
Description: In this example, a method for improving a one-time seedling rate of microspore embryoids of Brassica campestris ssp. Chinensis Makino included the steps of: • (1) pretreatment of flower bud • a concentration of 100 mg/L of 6-BA was sprayed onto a flower bud of a plant of Brassica campestris ssp. Chinensis Makino at a full-bloom stage after squaring; on the second day after the spraying of 6-BA, an inflorescence, which was specifically a main inflorescence or a healthy inflorescence of a primary branch of a plant without insect pests and cracked buds, was selected, placed in a self-sealing bag and sprayed with clean water, and then stored in a refrigerator at 4° C. for 1 day for later use; • (2) isolation of microspores • a flower bud with a petal length/anther length between 0.5-1 was selected, firstly sterilized with 70% alcohol for 30 s, then sterilized with 0.1% HgCl2 under shaking for 6 min, and then rinsed with sterilized water for 2 times, with each time for 5 min; then, the flower bud was crushed in a B5 medium with a glass rod to release microspores, and the microspores were filtered by a 300-mesh steel-wire mesh screen and a cell mesh screen successively; subsequently, a filtrate was collected into a centrifugal tube and centrifuged under the condition of 1,000 r/min for 3 min; and after the centrifuging, a pellet was resuspended with a B5 medium, and the resuspended solution was centrifuged again under the condition of 1,000 r/min for 3 min to obtain a pellet as the purified microspores desired for the objective; • (3) culture of microspores • the purified microspores were diluted with a NLN medium, and a cell density was adjusted to about 1.5 × 10^5 /mL^-1 (at this time, the medium was pale yellow); subsequently, the diluted purified microspores were subpackaged into culture dishes, and added with phytic acid PA at a concentration of 0.15%; and finally, the microspores were subjected to heat shock treatment at 33° C. for 24 h, then transferred to culture in the dark at 25° C., and placed onto a shaker for shaking culture after embryoids visible to naked eyes appeared; and • (4) germination and seedling of embryoids • the cultured embryoids in a cotyledon stage with a length of 2.8 mm were transferred onto a MS medium for differentiation culture, wherein culture conditions were 4° C., 14 h of illumination by blue-red compound light/day, and 14 days of culture; and then, the culture was continued under a condition of 25° C. and 14 h of illumination by blue-red compound light/day until seedling; wherein the ratio of blue light to red light in the blue-red compound light was 1:1. This example was used for verifying the effects of different concentrations of 6-BA on the embryogenesis rate of Brassica campestris ssp. Chinensis Makino: Method: in the pretreatment process of the flower buds, after squaring of Brassica campestris ssp. Chinensis Makino, at the full flowering stage, 6-BA solutions with concentrations of 0, 50, 100, 150 and 200 mg/L were prepared and sprayed onto the flower buds respectively, so as to study the effects of different concentrations of 6-BA on the embryogenesis rate of Brassica campestris ssp. Chinensis Makino (other steps were the same, and were conducted with reference to Example 3).

O=P(O)(O)O[C@H]1[C@H](OP(=O)(O)O)[C@@H](OP(=O)(O)O)[C@H](OP(=O)(O)O)[C@@H](OP(=O)(O)O)[C@H]1OP(=O)(O)O [PA, Phytic acid]
Average embryogenesis rate ([1]; PA 0.01% in medium): 0.774 embryo/bud | embryogenesis rate increased by ([1]; PA 0.01%, compared with the medium without addition of PA): 21% | Average embryogenesis rate ([1]; PA 0.1% in medium): 1.495 embryo/bud | embryogenesis rate increased by ([1]; PA 0.1%, compared with the medium without addition of PA): 134% | Average embryogenesis rate ([1]; PA 0.15% in medium): 1.137 embryo/bud | embryogenesis rate increased by ([1]; PA 0.15%, compared with the medium without addition of PA): 78% | Average embryogenesis rate ([1]; PA 0.5% in medium): 0.789 embryo/bud | embryogenesis rate increased by ([1]; PA 0.5%, compared with the medium without addition of PA): 23% | Average embryogenesis rate ([1]; PA 1% in medium): 0.487 embryo/bud | embryogenesis rate decreased by ([1]; PA 1%, compared with the medium without addition of PA): 24%

c1ccc(CNc2ncnc3[nH]cnc23)cc1 [6-BA]
Average embryogenesis rate ([2]; 6-BA 50 mg/L sprayed onto flower buds): 0.92 embryo/bud | embryogenesis rate increased by ([2]; 6-BA 50 mg/L): 38.46% | Average embryogenesis rate ([2]; 6-BA 100 mg/L sprayed onto flower buds): 1.56 embryo/bud | embryogenesis rate increased by ([2]; 6-BA 100 mg/L): 100% | Average embryogenesis rate ([2]; 6-BA 150 mg/L sprayed onto flower buds): 1.08 embryo/bud | embryogenesis rate increased by ([2]; 6-BA 150 mg/L): 17.95% | Average embryogenesis rate ([2]; 6-BA 200 mg/L sprayed onto flower buds): 0.74 embryo/bud | embryogenesis rate decreased by ([2]; 6-BA 200 mg/L, compared with that without application of the 6-BA solution): 5.13%
